“Also recorded” adds a separate entry of the source.
Tests used:
[1] = Estimated photosensitization depth into tissue from molar absorptivity cutoff and penetration depth of light
Text: FIG. 13 illustrates a plot showing molar absorptivity spectra of 4tUra and 2,4dtUra overlaid with the function of the wavelength-dependent penetration depth of light into unpigmented tissue. The ε cutoff is defined by the molar absorptivity of 4tUra at 365 nm; the excitation wavelength typically used in its photosensitization applications.
Importantly, many of the current applications employing 4tUra and other UVA photosensitizers (e.g. psoralen derivatives) use radiation at 365 nm as the excitation source. The use of longer UVA wavelengths reduces direct excitation of other biomolecules, thereby increasing photosensitization efficiency and minimizing unwanted side reactions. However, the requirement of using relatively high concentrations of the sensitizer and/or long irradiation times are two major drawbacks in the current use of 4tUra in photocrosslinking studies as well as in PUVA (psoralen+UVA) photochemotherapies. […] More importantly, 2,4dtUra enables the use of lower-energy excitation wavelengths, as long as 395 nm (see FIG. 13), considering a molar absorptivity cutoff criterion equal to that currently used for 4tUra (see ESI† for a more thorough justification of this cutoff criterion). In other words, the use of 2,4dtUra enables excitation at 395 nm while maintaining the same absorption efficiency and photoreactivity as that of 4tUra at 365 nm. […]

[2] = Femtosecond to microsecond transient absorption spectroscopy of the thiouracil series (intersystem crossing, triplet yield, triplet decay, triplet-triplet extinction)
Text: Briefly, 800 nm, 100 fs fundamental pulses were generated with a Ti-Sapphire regenerative amplifier laser system (Libra-HE, Coherent, Inc.: 4.0 W, 1 kHz). The fundamental beam was used to produce pump wavelengths of 320, 335, and 350 nm via an optical parametric amplifier (TOPAS, Quantronix/Light Conversion). Unwanted wavelengths were removed from the pump beam using a reflective wavelength filter and a Glan-Taylor polarizer. A fraction of the remaining fundamental beam was focused into a continuously moving CaF2 plate (2 mm thick) to generate broadband white light probe pulses (320-700 nm). The intensity of the excitation beam was attenuated to 1 mJ per pulse at the sample position. The polarization of the pump beam was randomized before being focused into the sample to overlap with the white light continuum probe at a 3:1 beam diameter ratio. Pump-probe experiments were collected using a Helios spectrometer (Ultrafast Systems, LLC) and a home-made data acquisition software (LabView, National Instruments, Inc.).
Solutions of the 2tUra, 4tUra, and 2,4dtUra derivatives were prepared in aqueous phosphate-buffered saline at pH 7.4. […] Solutions were investigated in 2 mm optical path length quartz cells and the irradiated volume was continuously refreshed by stirring with a Teflon-coated magnetic stir bar. Contributions to the transient data from any putative photoproduct formation were prevented by replacing the solution with fresh stock solution every 5 scans, or before 6% sample degradation (as monitored by a decrease in the steady-state absorbance of the lowest-energy absorption band). The UVA excitation wavelength used was varied depending on the absorption spectrum of the specific thiouracil derivative investigated. For 2tUra, an excitation wavelength of 320 nm was used, whereas 2,4dtUra was excited at 335 and 350 nm, and 4tUra was excited at all three of these UVA wavelengths.
Decay of the triplet state of 4tUra and 2,4dtUra to the ground state was monitored using the same excitation and detection setups but probing with an electronically triggered broadband white light source (Eos, Ultrafast Systems, LLC) that has been conveniently integrated into the Helios spectrometer. This probe source has a spectral window from B375 to 800 nm, a time resolution of about 400 ps, and a temporal window of up to 120 ms. […] Data were collected with the solutions under a constant nitrogen flow, and exciting at 350 nm with 3 mJ per pulse for 10 min, corresponding to less than 5% degradation.
For each data set, between 50 and 100 traces were selected across the entire range of probe wavelengths and globally analyzed in Igor Pro 6.32A (WaveMetrics, Inc.). […] 83 The uncertainties reported for the triplet population lifetimes are twice the standard deviation from the average fitting of at least three independent datasets (i.e., recorded on three different days). Triplet-triplet absorption spectra were extracted from the global fitting analysis.

[3] = cited from earlier work
[4] = Steady-state molar absorptivity spectra, thiouracil series; format: physicochemical; conditions: 380 to 400 nm; based on molar absorptivity spectra
Experimental: Steady-state absorption spectra were measured using a Cary 100 Bio spectrometer. All absorption spectra were background corrected by subtracting the absorption of the neat solvent. Molar absorptivity coefficients were determined from the absorption spectra of serial dilutions of stock solutions with known concentrations.
An important property in the characterization of the photosensitizing potential of the thiouracil series is the determination of their ground-state molar absorptivity spectra. […] The maximum of the lowest-energy absorption band is shifted considerably further to the red (60 nm, 6734 cm^−1) upon sulfur substitution of the oxygen atom at the C4 position compared to when the substitution is made at the C2 position. […] In fact, based on the molar absorptivity spectra, the absorption efficiency of 2,4dtUra at nearvisible wavelengths (380 to 400 nm) is about 27-fold greater than that of 4tUra (see ESI† for details). The ability of these thiouracil derivatives to absorb longer wavelengths of light than uracil facilitates their selective excitation over the canonical DNA and RNA nucleobases. This photophysical property is essential for their prospective use in in vitro and in vivo photosensitizing applications.

[5] = Singlet oxygen quantum yield by phosphorescence at 1270 nm, thiouracil series; format: physicochemical
Experimental: Solutions of 4tUra, 2,4dtUra, and the singlet oxygen standard (phenalenone; ΦΔ=0.98) were prepared in acetonitrile, each with an absorbance of 0.3 at 355 nm in a 1×1 cm quartz cuvette. The solutions were purged with oxygen for 30 min, followed by the determination of quantum yields from back-toback measurements of the singlet oxygen phosphorescence intensity at 1270 nm. The O2-saturated solutions were excited at 355 nm (Spectra Physics GCR-150-30: 7 ns pulse width) and the phosphorescence at 1270 nm was detected with a NIR sensitive photomultiplier tube (H10330A-45, Hamamatsu).
The singlet oxygen (^1O2) quantum yields of 4tUra and 2,4dtUra were measured by monitoring the characteristic phosphorescence of ^1O2 at 1270 nm with nanosecond time resolution.

[6] = system: adenosine 5′-monophosphate (5′-AMP); assay: Photoreactivity with adenosine 5′-monophosphate upon 365 nm irradiation in N2-saturated buffer
Experimental: Aqueous phosphate-buffered saline solutions, pH 7.4, containing either 4tUra or 2,4dtUra were prepared with and without 5′-AMP and loaded into 1×1 cm septum-top quartz cuvettes. The concentrations of the thiouracil derivatives and 5′-AMP were […], respectively. These concentrations were chosen in order to favor the bimolecular photoreaction between the thiouracil derivative and 50-AMP, while simultaneously maintaining the absorbance of the solutions within the linear dynamic range limit of the UV-visible spectrophotometer used. All solutions were purged with ultrapure nitrogen for 30 min and kept under constant nitrogen flow throughout the irradiation period. An optical parametric amplifier (TOPAS, Quantronix/Light Conversion) pumped by our Libra laser system (described above) was used for monochromatic (±1 nm) irradiation of the samples. […] Absorbance changes in the thiouracil solutions, with and without 5′-AMP, were monitored periodically using UV-visible spectroscopy (Cary 100 Bio) during irradiation at 365 nm for up to 90 min and while stored in the dark for up to three and a half days.
In order to scrutinize the light-induced reactivity of these sensitizers toward biomolecules, aqueous phosphate-buffered saline solutions of either 4tUra or 2,4dtUra were prepared in the presence of the RNA monomer adenosine 5′-monophosphate (5′-AMP) at a 1:5 molar ratio. […] The experimental conditions were chosen in order to facilitate the extraction of relative photoreaction rates from the changes in the steady-state absorption spectra with irradiation time. […]

- triplet-triplet extinction coefficient ([2]; at 600 nm, singlet depletion method): 2500 ± 600 M⁻¹ cm⁻¹
- absorption efficiency at near-visible wavelengths relative to 4tUra [4]: about 27 fold
SMILES: Sc1ccnc(S)n1 [2,4dtUra, 2,4-dithiouracil]
- longest excitation wavelength at molar absorptivity cutoff equal to that of 4tUra at 365 nm [1]: ≤ 395 nm
- increase in rate of intersystem crossing going from 2tUra [2]: 1.6 fold
- τISC intersystem crossing lifetime ([2]; aqueous phosphate-buffered saline solution, pH 7.4): 220±40 fs
- κT triplet-state decay rate ([2]; aqueous phosphate-buffered saline solution, pH 7.4, 24 mM solutions, nitrogen-purged, 350 nm excitation): 4.3 ± 0.9 10^6 s^−1
- intersystem crossing lifetime ([2]; aqueous phosphate-buffered saline, pH 5.4): 210±50 fs
- pKa [3]: 7.4
- ΦΔ singlet oxygen quantum yield ([5]; O2-saturated acetonitrile, 355 nm excitation, phenalenone standard): 0.49±0.02
- 1O2 yield relative to uracil ([5]; excited to lowest-energy absorption band): 3.3 fold
- 1O2 yield ([5]; following UVA excitation): ca. 50%
- photoreaction rate with 5′-AMP relative to 4tUra ([6]; 365 nm, same concentrations of reactants): approximately three times faster; also recorded: threefold greater; also recorded: threefold higher
- photoreaction rate ([6]; with 5′-AMP, 1:5 molar ratio (24 and 120 mM), 365 nm irradiation, N2-saturated aqueous buffer pH 7.4): (1.2±0.2)×10^−9 M s^−1

Reference: US10864273B2, “Thiobase compounds for photodynamic therapy” (CASE WESTERN RESERVE UNIVERSITY, priority 2015, dated 2020)
